Here are results for two molecules from US20260199496A1, “LINKER, LINKER-CONTAINING ANTIBODY DRUG CONJUGATE, AND PREPARATION METHOD THEREFOR AND USE THEREOF” (CHENGDU CHIPSCREEN NEWWAY BIOSCIENCES CO., LTD., priority 2022, published 2026).

The target in one assay is hPD-L1-his (Homo sapiens, UniProt Q9NZQ7). Put plainly: SPR (Biacore T200) affinity for hPD-L1-his. The conditions noted are these: 1:1 binding model. (Surface plasmon resonance follows binding to a sensor surface in real time, without labels.)
hPD-L1-his, sequence (Q9NZQ7 19-290): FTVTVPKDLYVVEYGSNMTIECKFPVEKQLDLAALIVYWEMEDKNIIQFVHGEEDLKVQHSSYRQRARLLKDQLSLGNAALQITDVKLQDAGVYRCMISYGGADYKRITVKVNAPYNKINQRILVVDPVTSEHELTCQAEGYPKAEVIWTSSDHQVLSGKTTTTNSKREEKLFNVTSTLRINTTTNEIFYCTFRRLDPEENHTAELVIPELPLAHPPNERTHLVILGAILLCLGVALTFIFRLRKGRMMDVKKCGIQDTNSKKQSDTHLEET
A further assay deals with Cyno PD-L1-his. Put plainly: SPR (Biacore T200) affinity for Cyno PD-L1-his. The conditions noted are these: ligand Cyno PD-L1-His, 1:1 binding model. Also on record: species or system cynomolgus monkey. The protocol:
(§1) […] Cyno PD-L1-his was captured onto the chip surface. The antibody-drug conjugate samples and the naked antibody sample were 2-fold diluted with 1×PBST to give a total of 7 concentration points, with the sample concentrations all being 25 nM-0.39 nM. The program was set. The samples were then loaded, and the program was executed. Data were analyzed using the Biacore Evaluation Software with the 1:1 binding model for kinetic fitting. The above steps were repeated. 2 μg/mL hPD-L1-his, 5 μg/mL mPD-L1-his, and 5 µg/mL Rat PD-L1-his were captured onto the chip surface separately. The above 4 samples were 2-fold diluted with 1×PBST. […] The program was set. The samples were then loaded, and the program was executed. Data were analyzed using the Biacore Evaluation Software with the 1:1 binding model for kinetic fitting.

The target in another assay is mPD-L1-his (Mus musculus, UniProt Q9EP73). Put plainly: SPR (Biacore T200) affinity for mPD-L1-his. The conditions noted are these: ligand mPD-L1-His, 1:1 binding model.
mPD-L1-his, sequence (Q9EP73 19-290): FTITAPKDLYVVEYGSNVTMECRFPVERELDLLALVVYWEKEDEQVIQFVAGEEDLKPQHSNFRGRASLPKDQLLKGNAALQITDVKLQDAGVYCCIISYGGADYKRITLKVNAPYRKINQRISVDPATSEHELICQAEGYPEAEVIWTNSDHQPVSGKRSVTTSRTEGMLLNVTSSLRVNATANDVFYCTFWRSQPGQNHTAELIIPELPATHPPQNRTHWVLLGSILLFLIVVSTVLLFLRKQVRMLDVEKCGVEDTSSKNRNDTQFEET
In another assay the target is Rat PD-L1-his (Rattus norvegicus, UniProt D4AE25). Kind of assay: SPR (Biacore T200) affinity for Rat PD-L1-his. The conditions noted are these: ligand Rat-PD-L1-His, 1:1 binding model. As for the experimental part:
as §1

A further assay relates to NCI-H292 cells. Kind of assay: Internalization in human lung cancer cell line NCI-H292. Format: cell-based. As to conditions: NCI-H292, 150 nM, 2 h, 4 h, 22 h; FIG. 28. The protocol: (1) NCI-H292 cells were collected, and 20 µL was taken for cell counting. (2) The cells were resuspended to 6×10^6 cells/mL, and the cell suspension was added into two 1.5-mL EP tubes at 100 μL/tube. (3) Diluted antibody-drug conjugate (ADC) group and antibody group samples were added separately at 100 L/tube, achieving a final sample concentration of 150 nM. The mixtures were thoroughly mixed and then incubated at 4° C. in the dark for 1 h. (4) The mixtures were washed twice with pre-cooled PBS and centrifuged at 1200 rpm for 5 min at 4° C., and then the supernatants were discarded. (5) Complete medium was added at 300 μL/tube to resuspend the cells, and the cell suspensions were separately transferred to new EP tubes at 150 L/tube, with one tube kept at 4° C. and the other incubated at 37° C. (6) After 2 h, 4 h, and 22 h, 50 L of cell suspension was collected from each of the 4° C. and 37° C. tubes, transferred to new EP tubes, mixed with 1 mL of pre-cooled PBS, and centrifuged at 1200 rpm for 5 min at 4° C., and then the supernatants were discarded. […] (9) Pre-cooled PBS was then added at 100 L/tube to resuspend the cells, and the cell suspensions were analyzed on a machine. (10) The internalization rate was calculated using the following formula: Internalization (%)=positive rate4° C. […]

In assay [1] the test system is CT26 hPD-L1-EX cells. Put plainly: Inhibition of CT26 hPD-L1-EX cell proliferation (MTS). Format: cell-based. The conditions noted are these: replicate wells; for Inhibition % / OD490: 5 μM, 48 h. As for the experimental part:
(1) CT26 hPD-L1-EX cells were collected, and 20 μL was taken for cell counting. (2) The cells were resuspended to 0.5×10^5 cells/mL and 0.5×10^5 cells/mL (5 mL each). (3) The cell suspensions were respectively added to two 96-well plates at 50 μL/well, followed by overnight culture at 37° C. with 5% CO2. (4) The ADC sample was diluted according to predetermined concentrations and added to the well plates at 100 μL/well. (5) The cells were cultured at 37° C. with 5% CO2 for 48 h. (6) 50 μL of culture medium was first aspirated and discarded, and then an MTS reagent was added at 20 μL/well. The cells were cultured at 37° C. with 5% CO2 for another 1-4 h. (7) Readings were taken at 490 nm.

In assay [2] the test system is CT26 hPD-L1-EX cells. Kind of assay: Inhibition of CT26 hPD-L1-EX cell proliferation (CCK8). Type of assay: cell-based. As to conditions: 2 days, CCK8, replicate wells; for Inhibition % / OD450: 10 μM. As for the experimental part:
(1) CT26 hPD-L1-EX cells were collected, and 20 μL was taken for cell counting. (2) The cells were resuspended to 2×10^5 cells/mL. (3) The cell suspension was added to a 96-well plate at 50 μL/well (1×10^4 cells/well), followed by overnight culture at 37° C. with 5% CO2. (4) The next day, the 96-well plate was taken out. The test sample was diluted with complete medium containing 10% FBS and then added to the plate at 50 µL/well to achieve a final sample concentration of 10 μM. The day of test sample addition was designated as day 0. The cells were cultured at 37° C. with 5% CO2 for another 2 days. (5) Day 2: The cell growth status was observed under a microscope, and then CCK8 was added at 10 μL/well. The cells were then cultured at 37° C. with 5% CO2 for another 4 h. (6) Absorbance values at 450 nm (OD450) were measured in real-time using a microplate reader.

In a further assay the test system is MC38 tumor. Put plainly: C57BL/6J mouse MC38 tumor model, ADC vs naked antibody (18.1). Type of assay: in vivo. As to conditions: 10 mg/kg intraperitoneal, three times per week, day 7 post-administration. The protocol:
18.1. The specific procedures were as follows: On the day of cell inoculation, each C57BL/6J mouse was subcutaneously inoculated with 3×10^5 MC38 cells (0.1 mL/mouse). When the average tumor volume in mice reached about 70-80 mm^3, grouping was performed. A total of 24 mice were divided into 3 groups, and drug administration began on the day of grouping. The administration regimen was three times per week, and the route of administration was intraperitoneal injection. […] The vehicle control group was intraperitoneally injected with an equivalent volume of PBS solution. After the start of administration, the body weight and tumor volume were measured three times per week. The tumor volume was calculated as: tumor volume (mm^3)=0.5×long diameter of tumor×(short diameter of tumor)^2. The experiment was terminated on day 7 post-administration. All mice were euthanized, and tumor tissues were collected and weighed.

Assay [3] concerns A375-hPDL1-Luciferase cells. Kind of assay: Inhibition of A375 in co-culture with human PBMCs (luciferase). Type of assay: cell-based. As to conditions: PBMC:A375 E:T 5:1, Matrigel, 6 days. As for the experimental part:
Cryopreserved PBMCs were taken out from a liquid nitrogen tank and added to 8 mL of pre-heated RPMI 1640 medium, and the mixture was centrifuged at 500 g for 10 min. The supernatant was discarded, and the PBMCs were resuspended in a small amount of RPMI 1640 medium. Then, the cell suspension was 10-fold diluted, and 20 μL of dilution was taken for cell counting. The cells were resuspended to 5E6 cells/mL. The A375-hPDL1-Luciferase cell suspension was collected, and 20 μL was taken for cell counting. The cells were resuspended to 1E6 cells/mL. The PBMC and A375-hPDL1-Luciferase cell suspensions were mixed at equal volumes to prepare a cell mixture with an E:T ratio of 5:1, and the mixture was adjusted to a total volume of 1500 L using RPMI 1640 complete medium. Matrigel was thawed on ice, and 1500 L of the thawed Matrigel was mixed with the cell mixture. The resulting mixture was added to a black 384-well plate at 20 μL/well, which was then placed at 37° C. for 10 min for solidification. […] The dilutions were added to the 384-well plate at 30 μL/well, and the cells were cultured at 37° C. with 5% CO2 for 6 days. Then, the 384-well plate was taken out, and Bio-Lite Luciferase Assay System was added at 20 μL/well. The mixture was incubated for 5-10 min and then assayed using a multi-mode microplate reader. The results are shown in FIG. 31, FIG. 32, and Table 7.

Setting [4] is: Table 3-1, ligand hPD-L1-His captured.

pIC50, pKd: −log10 of the molar value. “And” between values parts separate entries of the source, which are not always exact repeats. Identical values can stand only once.

As usually defined, the pKd is the Kd on a negative log10 scale, so that one unit is a factor of ten. As a reminder, the inhibition is how much of the control response was suppressed. What is called pIC50 is the IC50 on a negative log10 scale, so that one unit is a factor of ten.

Rat PD-L1-his, sequence (D4AE25 1-290): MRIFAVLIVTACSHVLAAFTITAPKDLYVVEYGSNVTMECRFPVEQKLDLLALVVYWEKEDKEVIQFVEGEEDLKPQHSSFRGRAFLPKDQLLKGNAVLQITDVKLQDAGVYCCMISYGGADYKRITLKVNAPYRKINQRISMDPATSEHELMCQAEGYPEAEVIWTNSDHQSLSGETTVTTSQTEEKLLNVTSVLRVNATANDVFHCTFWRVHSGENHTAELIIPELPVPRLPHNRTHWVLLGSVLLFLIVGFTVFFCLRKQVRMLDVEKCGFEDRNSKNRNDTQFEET
Procedure for hPD-L1-his: The procedures were as follows: A CM5 chip was activated with N-hydroxysuccinimide (NHS) and 1-ethyl-3-(3-dimethylaminopropyl)carbodiimide hydrochloride (EDC) at a 1:1 (v/v) ratio. Then, an anti-his antibody was immobilized, and the chip was blocked. 1 g/mL hPD-L1-his was captured onto the chip surface. […] The program was set. The samples were then loaded, and the program was executed. Data were analyzed using the Biacore Evaluation Software with the 1:1 binding model for kinetic fitting.
Procedure for mPD-L1-his: The program was set. The samples were then loaded, and the program was executed. Data were analyzed using the Biacore Evaluation Software with the 1:1 binding model for kinetic fitting. The above steps were repeated. 2 μg/mL hPD-L1-his, 5 μg/mL mPD-L1-his, and 5 g/mL Rat PD-L1-his were captured onto the chip surface separately. The above 4 samples were 2-fold diluted with 1×PBST. […] The program was set. The samples were then loaded, and the program was executed. Data were analyzed using the Biacore Evaluation Software with the 1:1 binding model for kinetic fitting.

As for atezolizumab [Ate antibody], in the assay with hPD-L1-his (setting [4]), the “ka” value came to 1.26e+06 M⁻¹ s⁻¹ and the “kd (1/s)” value was <10^−5 1/s. Further, in the assay with hPD-L1-his (Table 3-2, ligand hPD-L1-His), the “ka” value was found to be 2.46e+06 M⁻¹ s⁻¹ and the “kd” value was below 1e-05 s⁻¹. Further, at Cyno PD-L1-his, the pKd was 10.08, the “ka” value is 1.58e+06 M⁻¹ s⁻¹ and the “kd” value was determined as 0.00013 s⁻¹. For the same molecule, in the assay with mPD-L1-his, the “ka” value is 1.76e+06 M⁻¹ s⁻¹ and the “kd” value stood at 0.000119 s⁻¹. Besides, in the assay with Rat PD-L1-his, the “ka” value was 2.86e+06 M⁻¹ s⁻¹ and the “kd” value was 0.000981 s⁻¹. Besides, the “tumor cell internalization rate” value with NCI-H292 cells is recorded as “increased over time”. Also, in the assay with CT26 hPD-L1-EX cells [1], the Inhibition % was 4.42% and 5.66%; the OD490 is 1.1715 and 1.1587. In the assay with CT26 hPD-L1-EX cells [2], the Inhibition % is 13.08% and 4.39% and 10.94%; the OD450 is 2.1282 and 1.9824 and 1.9349. Also, in the assay with MC38 tumor, the “tumor growth inhibition rate TGI (%)” value is recorded as 16.26% and the tumor volume stood at 701.09 mm^3.
Take `Nc1cc(F)ccc1NC(=O)c1ccc(CNC(=O)/C=C/c2cccnc2)cc1` [Chidamide, reference compound]: in the assay with CT26 hPD-L1-EX cells [1], the Inhibition % amounted to 11.73%; the OD490 was 1.0283 and 1.0841. At 5 µM the inhibition in the assay with CT26 hPD-L1-EX cells [1] (Mus musculus, CT26, 48 h) was 16.1%. In the assay with CT26 hPD-L1-EX cells [2], the Inhibition % was 14.58% and 12.16%; the OD450 was 1.9014 and 1.9554 and 1.7934. The molecule also yielded an inhibition at 10 µM in the assay with CT26 hPD-L1-EX cells [2] (Mus musculus, CT26, 48 h) of 19.4%. In assay [3], this molecule gave a pIC50 of 6.08.
